In data set [1] the test system is mitogenic signalling. Particulars: ref [20], cited from earlier work.
Data set [2] deals with IGF-1R. Particulars: cited from earlier work.
In data set [3] the test system is IR. Particulars: cited from earlier work. The text has this:
This is similar to the poorly mitogenic S597 peptide, which also promoted slowe ...

Data set [4] has as its system IR. Particulars: compared to insulin; ref [20], [21]; cited from earlier work.
The subject of data set [5] is IR. Particulars: ref [20]; cited from earlier work.
The subject of data set [6] is IR-A. The data set is described as follows: IR-A receptor internalization. Particulars: 10 nM; for IR-A internalization (in words): 2 hours post-stimulation; for IR-A remaining on the cell surface: within 2 h, % of surface/total receptor normalised to SFM t = 0. It is filed as cell-based, human. As to the method:
All data are the mean ± S.E.M. n = at least 3 independent experiments. Error bars are shown when greater than the size of the symbols.
(§1) Assays were performed in triplicate in at least three independent experiments.

Data set [7] addresses T1, IGF-1R (Homo sapiens, UniProt P08069).
T1 construct: expressed in transfected cells; host or cells: P6 cells (BALB/c3T3 mouse fibroblasts overexpressing human IGF-1R); Triton X-100 lysate captured on anti-IGF-1R antibody 24-31
Briefly: Kinase receptor activation assay (KIRA), IGF-1R. The data set is classed as cell-based. Particulars: 10 min stimulation, P6 cells.

For data set [8], the system named is ERK 1/2 / p90RSK phosphorylation in L6 IR-A cells. The data set is described as follows: Western blot time-course, MAPK pathway, L6 IR-A. Particulars: 10 nM, then reducing between t = 10 – 30 min. It is filed as cell-based, rat cells; human IR-A. (In general: In western blotting, separated proteins are transferred to a membrane and probed.)
Experimental: (§2) R/^-IR-B (80,000 cells/well) or L6 IR-A cells (240,000 cells/well) were seeded in 6-well plates and allowed to grow to confluence (~ 48 hours). Prior to stimulation, cells were serum starved in SFM/1% BSA for 4 h. […] Lysates were scraped from the well, spun at 13,000 rpm for 3 min at 0°C to remove cell debris and stored at -80°C. Lysate protein concentrations were quantified using Bio-Rad DC™ Protein Assay and 20μg of each sample was separated in 10% glycine gels under reducing conditions. Transferred blots were blocked for 1 h at room temperature in TBST containing 3% BSA and probed with primary antibodies (Pathscan Antibody, pAkt(Thr308), pGSK(Ser9), pAS160(Thr642)) in blocking solution (TBST containing 3% BSA) overnight at 4°C. All blots were also probed with anti-β-tubulin as a loading control. Blots were washed six times for 5 min each in TBST then probed with either HRP-conjugated (dose-response) or fluorophore-conjugated (time-course) secondary antibodies for 1 hour at room temperature. The washing was then repeated.
(§3) Dose response blots were developed in ECL reagent according to manufacturer’s instruction and imaged in Fujiflim LAS-4000 Luminescent Image Analyzer. Time course blots were imaged with an Odyssey® CLx Imaging System. All blots were performed at least three times. All data were analysed with LI-COR Image Studio™ software and each band intensity was normalized to tubulin of its respective lane.
For data set [9], the system named is Akt / GSK-3β / S6 phosphorylation in L6 IR-A cells. The data set is described as follows: Western blot time-course, PI3K/Akt pathway, L6 IR-A. It is filed as cell-based, rat cells; human IR-A. Particulars: 10 nM; for time to optimal phosphorylation of Akt (Ser473, Thr308) and GSK-3β: maximal up to t = 30 min.
Experimental: as §2, §3
Data set [10] relates to L6 rat skeletal myoblasts overexpressing human IR-A (L6 IR-A cells). The data set is described as follows: DNA synthesis assay (EdU incorporation). It is filed as cell-based. Particulars: 18 h, equipotent within fold stated. As to the method: as §1
For data set [11], the target named is T1, IGF-1R. Briefly: Competition binding assay, europium-labelled IGF-I, IGF-1R. As to the method:
Results are expressed as a percentage of binding in the absence of competing ligand (%B/B0). […] All data are the mean ± S.E.M. n = at least 3 independent experiments. Error bars are shown when greater than the size of the symbols.
Human IR isoform A, isoform B and IGF-1R were solubilized from R^-IR-A, R^-IR-B and P6 cells, respectively. Briefly, cells were serum starved in serum-free medium (SFM) containing 1% (w/v) BSA for 4 h before lysis in ice-cold lysis buffer (20 mM HEPES, 150 mM NaCl, 1.5mM MgCl2, 10% (v/v) glycerol, 1% (v/v) Triton X-100, 1mM EGTA, and 1 mM phenylmethylsulfonyl fluoride, pH 7.5) for 1 h at 4°C. Lysates were centrifuged for 10 min at 2,200g, and then 100 µL of lysate was added per well to a white Greiner Lumitrac 600 96-well plate (16 h at 4°C) previously coated with anti-IR antibody 83-7 or anti-IGF-1R antibody 24-31 (250 ng/well in bicarbonate buffer, pH 9.2). […] Wells were washed with 20 mM Tris, pH 7.4, 150 mM NaCl (TBS) and 0.1% (v/v) Tween 20 (TBST). Then 100 µl/well DELFIA enhancement solution (PerkinElmer Life Sciences) was added. After 10 min, time-resolved fluorescence was measured using 340-nm excitation and 612-nm emission filters with a BMG Lab Technologies Polarstar fluorometer (Mornington, Australia). Assays were performed in triplicate in at least three independent experiments.

The target of data set [12] is T1, IGF-1R. Particulars: % of native insulin; ref [21], [23]; cited from earlier work.
Data set [13] has as its system insulin receptor isoform A (IR-A). Particulars: compared to native insulin; ref [21]; cited from earlier work.
Data set [14] concerns the target T2, IR isoform B (IR-B) (Homo sapiens, UniProt P06213).
T2 construct: expressed in transfected cells; host or cells: R-IR-B cells (IGF-1R knockout mouse embryonic fibroblasts over-expressing human IR-B); Triton X-100 lysate captured on anti-IR antibody 83-7
Particulars: compared to insulin; ref [21]–[23], [32]; cited from earlier work.

For data set [15], the system named is IR-B. The data set is described as follows: Kinase receptor activation assay (KIRA), IR-B. Particulars: 10 min stimulation, Eu-PY20 detection. The data set is classed as cell-based, human.
In data set [16] the test system is C57BL6 male mice. The data set is described as follows: Insulin tolerance test. It is filed as in vivo, mouse. Particulars: 0.75 IU/kg ip, chow fed mice, non-fasting, 2 hours post-treatment.
Data set [17] concerns the target T3, IR isoform A (IR-A) (Homo sapiens, UniProt P06213).
T3 construct: expressed in transfected cells; host or cells: R-IR-A cells (IGF-1R knockout mouse embryonic fibroblasts over-expressing human IR-A); Triton X-100 lysate captured on anti-IR antibody 83-7
Particulars: compared to insulin; ref [21]–[23], [32]; cited from earlier work.

Where two headings read alike, the source gives them in different places.

T3 sequence (P06213 28-1370 isoform P06213-2 limits assumed): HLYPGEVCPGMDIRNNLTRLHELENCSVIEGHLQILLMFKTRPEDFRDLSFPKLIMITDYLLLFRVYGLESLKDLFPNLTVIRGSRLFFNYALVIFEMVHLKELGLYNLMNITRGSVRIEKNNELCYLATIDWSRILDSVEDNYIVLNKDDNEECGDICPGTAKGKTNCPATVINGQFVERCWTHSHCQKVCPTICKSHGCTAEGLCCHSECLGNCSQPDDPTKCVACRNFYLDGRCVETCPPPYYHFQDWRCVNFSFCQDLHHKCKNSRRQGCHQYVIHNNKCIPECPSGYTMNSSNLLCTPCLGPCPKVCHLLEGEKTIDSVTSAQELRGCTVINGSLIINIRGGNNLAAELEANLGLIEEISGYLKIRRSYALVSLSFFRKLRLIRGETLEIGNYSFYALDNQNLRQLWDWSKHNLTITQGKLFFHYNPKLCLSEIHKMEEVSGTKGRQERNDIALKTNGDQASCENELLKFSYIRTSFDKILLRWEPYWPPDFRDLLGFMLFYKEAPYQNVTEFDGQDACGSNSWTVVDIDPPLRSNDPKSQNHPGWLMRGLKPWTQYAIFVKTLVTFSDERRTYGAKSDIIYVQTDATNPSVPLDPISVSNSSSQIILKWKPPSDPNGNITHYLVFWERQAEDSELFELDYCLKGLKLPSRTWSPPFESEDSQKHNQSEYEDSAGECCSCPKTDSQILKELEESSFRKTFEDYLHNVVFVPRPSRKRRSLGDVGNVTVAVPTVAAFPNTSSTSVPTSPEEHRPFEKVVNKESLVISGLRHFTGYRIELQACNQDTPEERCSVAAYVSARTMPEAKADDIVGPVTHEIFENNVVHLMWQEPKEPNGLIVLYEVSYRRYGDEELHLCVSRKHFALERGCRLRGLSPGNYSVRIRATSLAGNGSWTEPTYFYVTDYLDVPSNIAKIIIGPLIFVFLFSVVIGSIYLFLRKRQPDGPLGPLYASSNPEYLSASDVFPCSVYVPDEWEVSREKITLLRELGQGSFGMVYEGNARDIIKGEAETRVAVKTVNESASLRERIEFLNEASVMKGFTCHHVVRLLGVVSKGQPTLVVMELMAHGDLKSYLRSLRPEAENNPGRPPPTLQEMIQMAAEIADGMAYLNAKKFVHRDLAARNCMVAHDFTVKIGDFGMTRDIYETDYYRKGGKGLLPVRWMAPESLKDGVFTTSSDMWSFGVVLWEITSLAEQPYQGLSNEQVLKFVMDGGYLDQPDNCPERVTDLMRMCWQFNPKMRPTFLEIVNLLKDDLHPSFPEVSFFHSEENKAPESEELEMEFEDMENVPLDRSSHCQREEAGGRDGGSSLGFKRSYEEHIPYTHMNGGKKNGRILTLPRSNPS
T3 sequence (P06213 763-1382 partner limits assumed): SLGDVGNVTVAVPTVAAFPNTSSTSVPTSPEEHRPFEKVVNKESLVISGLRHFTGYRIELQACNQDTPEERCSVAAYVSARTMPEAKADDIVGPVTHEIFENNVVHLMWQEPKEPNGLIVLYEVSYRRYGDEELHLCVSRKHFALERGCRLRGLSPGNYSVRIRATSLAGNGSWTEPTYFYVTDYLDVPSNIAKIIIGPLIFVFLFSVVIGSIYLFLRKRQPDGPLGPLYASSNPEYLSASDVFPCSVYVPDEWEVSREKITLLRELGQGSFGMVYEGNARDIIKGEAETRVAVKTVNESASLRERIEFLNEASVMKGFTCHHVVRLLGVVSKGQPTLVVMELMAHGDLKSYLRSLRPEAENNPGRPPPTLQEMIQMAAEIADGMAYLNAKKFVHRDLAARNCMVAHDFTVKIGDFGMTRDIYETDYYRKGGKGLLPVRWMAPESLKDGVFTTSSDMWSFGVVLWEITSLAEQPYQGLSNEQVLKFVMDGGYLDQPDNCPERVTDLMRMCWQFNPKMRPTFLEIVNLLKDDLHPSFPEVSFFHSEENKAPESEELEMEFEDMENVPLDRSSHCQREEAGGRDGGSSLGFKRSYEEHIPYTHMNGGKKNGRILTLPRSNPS
T2 sequence (P06213 28-758 limits assumed): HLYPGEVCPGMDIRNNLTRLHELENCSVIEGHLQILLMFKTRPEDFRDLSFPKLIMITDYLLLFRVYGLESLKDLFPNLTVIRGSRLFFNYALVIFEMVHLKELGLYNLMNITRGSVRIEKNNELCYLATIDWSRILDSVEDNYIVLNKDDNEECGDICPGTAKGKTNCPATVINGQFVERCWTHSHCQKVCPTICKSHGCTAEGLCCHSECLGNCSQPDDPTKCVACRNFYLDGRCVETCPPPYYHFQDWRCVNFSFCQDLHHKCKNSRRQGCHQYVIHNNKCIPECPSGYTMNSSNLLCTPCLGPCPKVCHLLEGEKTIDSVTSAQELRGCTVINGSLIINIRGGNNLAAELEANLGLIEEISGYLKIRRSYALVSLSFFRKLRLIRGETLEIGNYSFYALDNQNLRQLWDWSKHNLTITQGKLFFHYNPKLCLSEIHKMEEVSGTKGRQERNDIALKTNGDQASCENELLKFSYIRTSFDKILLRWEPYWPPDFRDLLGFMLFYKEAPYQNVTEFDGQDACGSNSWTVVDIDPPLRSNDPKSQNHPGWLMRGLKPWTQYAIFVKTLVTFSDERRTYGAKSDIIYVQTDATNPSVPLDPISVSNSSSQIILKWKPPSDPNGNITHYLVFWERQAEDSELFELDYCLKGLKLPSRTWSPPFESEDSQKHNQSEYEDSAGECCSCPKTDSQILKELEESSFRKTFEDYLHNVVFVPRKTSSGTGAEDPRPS
T2 sequence (P06213 763-1382 partner limits assumed): as the sequence (P06213 763-1382 partner limits assumed) above

As to HisB10Asp insulin [insulin X10], in [1], the “mitogenic signalling (in words)” value is listed as “enhanced mitogenic signalling”. Besides, the “IGF-1R binding affinity (in words)” value in data set [2] (compared to insulin, ref [20], [21]) is “increased binding affinity for the growth-promoting insulin-like growth factor receptor 1 (IGF-1R)”. For the same substance, the “phosphorylation of IR-A Tyr960, Tyr1146 and Tyr1322 (in words)” value in data set [3] (compared to insulin, ref [32]) is “increased phosphorylation of IR-A Tyr960, Tyr1146 and Tyr1322 compared to insulin”. Also, the “phosphorylation of the IR (in words)” value in data set [3] (ref [20]) is given as “sustained phosphorylation of the IR”. Also, in data set [4], the “rate of dissociation from the IR (in words)” value is on record as “reduced rate of dissociation from the IR compared to insulin”. Further, the “receptor internalization (in words)” value in data set [5] was “increased rate of receptor internalization”.

Take human insulin: in data set [6], the “IR-A internalization (in words)” value was “rapidly induced receptor internalization post-stimulation (evident within 10 min)” and the “IR-A remaining on the cell surface” value is recorded as 60%. Moreover, in data set [7], the “IGF-1R activation (in words)” value was “equipotent but poorly activated the IGF-1R”. The “time to maximal phosphorylation of ERK1/2 and p90RSK” value in data set [8] came out at 10 min. Moreover, the “kinetics of activation of the PI3K/Akt pathway (in words)” value in data set [9] (0–30 min, p-Akt Ser473, p-Akt Thr308, p-GSK3β, p-S6) was “essentially the same”. Moreover, in data set [9], the “time to optimal phosphorylation of Akt (Ser473, Thr308) and GSK-3β” value is at most 20 s.

In the case of insulin glargine, in data set [10], the “DNA synthesis, potency difference from native insulin” value was at most 2 fold. Further, in data set [6], the “IR-A internalization (in words)” value is “rapidly induced receptor internalization post-stimulation (evident within 10 min)” and the “IR-A remaining on the cell surface” value is 60%. The “mitogenic cell signalling (in words)” value in data set [1] (compared to native insulin, [23]) was “equipotent in promoting mitogenic cell signalling”. The “IGF-1R binding affinity (in words)” value in [2] (compared to native insulin, ref [22]) is “binds to the IGF-1R with higher affinity”. Moreover, the “IGF-1R affinity compared to native insulin” value in data set [11] (% of native insulin) was 480%. The substance also registered an IC50 in data set [11] (competition for europium-labelled IGF-I, solubilized receptor from P6 cells, 16 h at 4°C, mean ± S.E.M., n = 3 or more) of 6.71 ± 3.9 nM. For the same substance, in data set [8], the “time to maximal phosphorylation of ERK1/2 and p90RSK” value is listed as 10 min. The “IGF-1R affinity, literature range” value in [12] was 460–650%. The “IR-A dissociation kinetics (in words)” value in data set [13] is reported as “dissociation kinetics do not differ from native insulin”. In addition, the “IR-B binding, literature range” value in [14] is recorded as 50-85%. Besides, the “time to optimal phosphorylation of Akt (Ser473, Thr308) and GSK-3β” value in [9] is on record as at most 20 s. Also, the “IR-B activation (in words)” value in [15] is reported as “potency similar to native insulin”. In addition, the “blood glucose lowering (in words)” value in data set [16] was “no statistical difference”. Further, the “IR-A binding, literature range” value in data set [17] is on record as 40-86%.

Broadly, the IC50 is the concentration needed to halve the response being measured. The low end stands for inhibition by little substance, the high end for a need for much substance.

These data come from article PMC9271792 (Frontiers in Endocrinology, 2022).
